From PubChem BioAssay (NCI)
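Following 48 hours of exposure in 96-well plates, responses at five concentrations were used to interpolate endpoints linearly. TGI: concentration producing complete growth inhibition.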

How the values were obtained:
Assay in all cases: growth of human tumour cells (NCI), 48 h
786-0 renal = test system: 786-0 renal
A549 NSCLC = test system: A549 NSCLC
CAKI-1 renal = test system: CAKI-1 renal
DMS 114 small cell lung = test system: DMS 114 small cell lung
HCC-2998 colon = test system: HCC-2998 colon
HL-60(TB) leukemia = test system: HL-60(TB) leukemia
HOP-92 NSCLC = test system: HOP-92 NSCLC
K-562 leukemia = test system: K-562 leukemia
LOX IMVI melanoma = test system: LOX IMVI melanoma
NCI-H226 lung = test system: NCI-H226 lung
OVCAR-5 ovarian = test system: OVCAR-5 ovarian
SK-MEL-28 melanoma = test system: SK-MEL-28 melanoma
SW-620 colon = test system: SW-620 colon
UACC-62 melanoma = test system: UACC-62 melanoma
BT-549 breast = test system: BT-549 breast
COLO 205 colon = test system: COLO 205 colon
MCF7 breast = test system: MCF7 breast
MDA-MB-231 breast = test system: MDA-MB-231 breast
MDA-N = test system: MDA-N
T-47D breast = test system: T-47D breast

Compound | TGI (786-0 renal) [µM] | TGI (A549 NSCLC) [µM] | TGI (CAKI-1 renal) [µM] | TGI (DMS 114 small cell lung) [µM] | TGI (HCC-2998 colon) [µM] | TGI (HL-60(TB) leukemia) [µM] | TGI (HOP-92 NSCLC) [µM] | TGI (K-562 leukemia) [µM] | TGI (LOX IMVI melanoma) [µM] | TGI (NCI-H226 lung) [µM] | TGI (OVCAR-5 ovarian) [µM] | TGI (SK-MEL-28 melanoma) [µM] | TGI (SW-620 colon) [µM] | TGI (UACC-62 melanoma) [µM] | TGI (BT-549 breast) [µM] | TGI (COLO 205 colon) [µM] | TGI (MCF7 breast) [µM] | TGI (MDA-MB-231 breast) [µM] | TGI (MDA-N) [µM] | TGI (T-47D breast) [µM]
COc1c(C)c(O)c2c(c1C)OC(c1ccccc1)CC2=O (centres undefined) | > 100 | > 100 | > 100 | > 100 | > 100 | 90.5 | > 100 | > 100 | > 100 | > 100 | > 100 | > 100 | > 100 | > 100 | – | – | – | – | – | –
Cn1cnc2c1c(=O)n(CCNCCO)c(=O)n2C | > 100 | > 100 | > 100 | – | > 100 | > 100 | > 100 | > 100 | > 100 | > 100 | > 100 | > 100 | > 100 | > 100 | > 100 | > 100 | > 100 | > 100 | > 100 | > 100
COc1ccc(C(=C2C(=O)N(c3ccccc3)C(=O)C2=C(C)C)c2ccc(OC)cc2)cc1 | 23.7 | > 62.9 | 42 | – | > 52 | 6.32 | > 31.6 | > 100 | > 31.3 | > 54 | > 58.6 | 20.7 | > 100 | > 34.2 | > 39.2 | > 33.3 | > 45.4 | > 35.4 | 4.11 | > 100
C=C1CC(C)(COc2ccc3c(C)cc(=O)oc3c2)OC1=O (centres undefined) | 5.65 | 23.8 | 7.53 | – | 9.5 | 3.94 | 3.25 | > 31.9 | 5.11 | 26.2 | 16.5 | 9.02 | 3.09 | 4.8 | 7.56 | 2.86 | 2.39 | 15.5 | 8.29 | 3.8
COc1cc2c(cc1OC)C(=O)/C(=C/c1cc(Cl)cc(Cl)c1)C2 | > 89.7 | > 100 | > 100 | – | > 100 | > 100 | 99.6 | > 44.4 | > 100 | > 100 | > 100 | > 100 | > 100 | > 95.8 | > 100 | > 100 | > 100 | > 100 | 4.86 | > 100
CC(C)NC(=O)OCc1c(COC(=O)NC(C)C)c(-c2cc[n+](COC(=O)C(C)C)cc2)n2c1CCC2 | > 100 | > 100 | > 94.8 | – | > 100 | > 77.7 | > 100 | > 100 | > 100 | > 100 | > 100 | > 100 | > 100 | > 100 | > 100 | > 100 | > 100 | > 100 | > 100 | > 100
